From patent US20090062401A1, “DECALINE-DERIVED COMPOUNDS AS […] ACTIVE AGENTS” (UNIVERSITAT DORTMUND, priority 2004, published 2009)

Tests used:
Format in all cases: biochemical
VHR = VHR (Homo sapiens, UniProt P51452); test: VHR phosphatase inhibition, general phosphatase assay using para-nitrophenylphosphate; details: read-out: IC50 Target VHR
From the text: (§1) Assays protocols for the other enzymes mentioned herein (MtPTPA, PP1, VHR, PTP1B) are disclosed in Schweizer R A S, Atanasov, G A, Frey B M, and Odermatt A, Mol. Cell. Endocrinol. 2003, 212, 41-49 and Barratte, B., Meijer L., Galaktionov K. & Beach D, Anticancer Res. 1992, 12, 873-880. For determination of the phosphatase activity, a general phosphatase assay using para-nitrophenylphosphate was applied.

PTP1B = biological target: T1, PTP1B (Homo sapiens, UniProt P18031); test: PTP1B phosphatase inhibition, general phosphatase assay using para-nitrophenylphosphate; details: read-out: IC50 Target PTP1B
T1 sequence (P18031 1-435): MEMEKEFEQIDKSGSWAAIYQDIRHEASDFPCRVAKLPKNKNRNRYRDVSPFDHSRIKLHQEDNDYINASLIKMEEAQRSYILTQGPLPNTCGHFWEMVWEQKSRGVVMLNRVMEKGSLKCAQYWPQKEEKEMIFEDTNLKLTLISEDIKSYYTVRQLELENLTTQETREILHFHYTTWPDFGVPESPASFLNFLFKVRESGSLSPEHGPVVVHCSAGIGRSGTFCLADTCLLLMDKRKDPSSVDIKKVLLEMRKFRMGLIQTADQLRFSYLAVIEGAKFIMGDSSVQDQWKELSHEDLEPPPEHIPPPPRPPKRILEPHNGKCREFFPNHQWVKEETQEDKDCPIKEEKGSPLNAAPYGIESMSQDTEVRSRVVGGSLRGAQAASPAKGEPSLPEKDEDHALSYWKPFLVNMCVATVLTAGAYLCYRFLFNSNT
From the text: as §1

Cdc25A = biological target: T2, Cdc25A (Homo sapiens, UniProt P30304); test: Cdc25A phosphatase inhibition; details: read-out: IC50 Target Cdc25A
T2 sequence (P30304 1-524): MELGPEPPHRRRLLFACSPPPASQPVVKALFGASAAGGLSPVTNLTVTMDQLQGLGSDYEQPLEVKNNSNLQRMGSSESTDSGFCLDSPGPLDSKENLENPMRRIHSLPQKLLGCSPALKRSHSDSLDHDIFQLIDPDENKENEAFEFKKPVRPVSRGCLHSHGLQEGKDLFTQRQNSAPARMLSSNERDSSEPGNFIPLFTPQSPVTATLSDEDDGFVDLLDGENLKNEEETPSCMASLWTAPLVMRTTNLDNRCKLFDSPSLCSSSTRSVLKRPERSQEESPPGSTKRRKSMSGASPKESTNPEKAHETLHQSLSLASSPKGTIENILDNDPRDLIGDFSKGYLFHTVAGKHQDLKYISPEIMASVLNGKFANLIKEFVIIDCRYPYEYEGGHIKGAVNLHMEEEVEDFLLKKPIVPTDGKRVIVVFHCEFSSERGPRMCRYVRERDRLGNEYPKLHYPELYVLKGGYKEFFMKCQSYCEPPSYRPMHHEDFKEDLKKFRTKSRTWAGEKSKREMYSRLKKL
From the text: Assay protocols for Cdc25A, 11βHSD1, 11βHSD2, and AChE are described in detain in the publication of Koch M A, Wittenberg L O, Basu S, Jeyaraj D A, Gourzoulidou E, Reinecke K, Odermatt A, Waldmann H (Proc. Natl. Acad. Sci. U.S.A. 2004 Nov. 30; 101(48):16721-6) and in Koch M A et al., Proc. Natl. Acad. Sci. U.S.A. 2005 Nov. 29; 102 (48):17272-7.

Chain of VHR (P51452 whole entry, species assumed): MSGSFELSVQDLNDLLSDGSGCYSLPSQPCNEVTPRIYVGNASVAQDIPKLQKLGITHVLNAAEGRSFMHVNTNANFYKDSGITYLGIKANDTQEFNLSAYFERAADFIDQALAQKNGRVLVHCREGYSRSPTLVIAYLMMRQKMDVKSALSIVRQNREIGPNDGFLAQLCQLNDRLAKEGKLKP

Structure (SMILES)	IC50 (VHR) [µM]	IC50 (PTP1B) [µM]	IC50 (Cdc25A) [µM]
COc1ccc(/C=C2\C[C@@]3(C)C(=C(C)C2=O)CCC[C@@H]3O)c(C)c1 [Compound 16, (3E,4aS,5S)-3-(4-Methoxy-2-methylbenzyliden)-4,4a,5,6,7,8-hexahydro-5-hydroxy-1,4a-dimethylnaphthalen-2(3H)-one]	10 to 50	10 to 50	–
CC1=C2CCC[C@H](O)[C@@]2(C)C/C(=C\c2cccs2)C1=O [Compound 30, (3E,4aS,5S)-4,4a,5,6,7,8-Hexahydro-5-hydroxy-1,4a-dimethyl-3-[(thiophen-2-yl)methylen]naphthalen-2(3H)-one]	10 to 50	10 to 50	–
CC1=C2CCC[C@H](O)[C@@]2(C)C/C(=C\c2sccc2C)C1=O [Compound 33]	10 to 50	10 to 50	–
CC1=C2CCC[C@H](O)[C@@]2(C)C/C(=C\c2ccco2)C1=O [Compound 34, (3E,4aS,5S)-3-[(Furan-2-yl)methylen]-4,4a,5,6,7,8-hexahydro-5-hydroxy-1,4a-dimethylnaphthalen-2(3H)-one]	–	10 to 50	–
COC#Cc1ccc(/C=C2\C[C@@]3(C)C(=C(C)C2=O)CCC[C@@H]3O)cc1 [Compound 37, (3E,4aS,5S)-3-[4-(2-Methoxy-ethinyl)benzyliden]-4,4a,5,6,7,8-hexahydro-5-hydroxy-1,4a-dimethylnaphthalen-2(3H)-one]	–	10 to 50	–
CC1=C2CCC[C@H](O)[C@@]2(C)C/C(=C\c2ccc(C#Cc3ccc(C)cc3)cc2)C1=O [Compound 41, (3E,4aS,5S)-3-[4-(2-p-Tolylethinyl)benzyliden]-4,4a,5,6,7,8-hexahydro-5-hydroxy-1,4a-dimethyl-naphthalen-2(3H)-one]	–	10 to 50	–
C#CCCCCCC#Cc1ccc(/C=C2\C[C@@]3(C)C(=C(C)C2=O)CCC[C@@H]3O)cc1 [Compound 42, (3E,4aS,5S)-3-[4-(Nona-1,8-diinyl)benzyliden]-4,4a,5,6,7,8-hexahydro-5-hydroxy-1,4a-dimethyl-naphthalen-2(3H)-one]	–	–	< 10
CCCCCCCCCCCCCCC#Cc1ccc(/C=C2\C[C@@]3(C)C(=C(C)C2=O)CCC[C@@H]3O)cc1 [Compound 43, (3E,4aS,5S)-3-[4-(Hexadec-1-inyl)benzyliden]-4,4a,5,6,7,8-hexahydro-5-hydroxy-1,4a-dimethyl-naphthalen-2(3H)-one]	10 to 50	10 to 50	–
CC1=C2CCC[C@H](O)[C@@]2(C)C/C(=C\c2ccc(C#CC3(O)CCCCC3)cc2)C1=O [Compound 48, (3E,4aS,5S)-3-{4-[2-(1-Hydroxycyclohexyl)ethinyl]benzyliden}-4,4a,5,6,7,8-hexahydro-5-hydroxy-1,4a-dimethylnaphthalen-2(3H)-one]	–	–	10 to 50
CC1=C2CCC[C@H](O)[C@@]2(C)C/C(=C\C[C@]2(O)C[C@@H](O)[C@@H](O)[C@H](O)C2)C1=O [Compound 58, (3E,4aS,5S)-4,4a,5,6,7,8-Hexahydro-5-hydroxy-3-{2-[(1S,3R,4S,5R)-1,3,4,5-tetrahydroxycyclohexyl]-ethyliden}-1,4a-dimethylnaphthalen2(3H)-one]	10 to 50	10 to 50	–
CC1=C2CCC[C@H](O)[C@@]2(C)C/C(=C\CCc2ccco2)C1=O [Compound 59, (3E,4aS,5S)-3-[3-(Furan-2-yl)propyliden]-4,4a,5,6,7,8-hexahydro-5-hydroxy-1,4a-dimethylnaphthalen-2(3H)-one]	–	10 to 50	–
CC1=C2CCC[C@H](O)[C@@]2(C)C/C(=C\c2c(C)c(C)c(C)c(C)c2C)C1=O [Compound 61, (3E,4aS,5S)-3-(2,3,4,5,6-Pentamethylbenzyliden)-4,4a,5,6,7,8-hexahydro-5-hydroxy-1,4a-dimethylnaphthalen-2(3H)-one]	–	10 to 50	–
CC1=C2CCC[C@H](O)[C@@]2(C)C/C(=C\c2ccc(OCc3ccccc3)cc2)C1=O [Compound 66, (3E,4aS,5S)-3-[4-(Benzyloxy)benzyliden]-4,4a,5,6,7,8-hexahydro-5-hydroxy-1,4a-dimethylnaphthalen-2(3H)-one]	–	10 to 50	–
C=C(C)C#Cc1ccc(/C=C2\C[C@@]3(C)C(=C(C)C2=O)CCC[C@@H]3O)cc1 [Compound 71, (3E,4aS,5S)-3-[4-(3-Methylbut-3-en-1-inyl)benzyliden]-4,4a,5,6,7,8-hexahydro-5-hydroxy-1,4a-dimethylnaphthalen-2(3H)-on]	–	–	10 to 50
CC1=C2CCC[C@H](O)[C@@]2(C)C/C(=C\c2ccc(C#CCCCc3ccccc3)cc2)C1=O [Compound 72, (3E,4aS,5S)-3-[4-(5-Phenylpent-1-inyl)benzyliden]-4,4a,5,6,7,8-hexahydro-5-hydroxy-1,4a-dimethylnaphthalen-2(3H)-one]	–	–	10 to 50
CC1C(=O)/C(=C/c2cccn2C)C[C@@]2(C)C1CCC[C@@H]2O (stereo partly drawn) [Compound 86, (E,4aS,5S)-Octahydro-5-hydroxy-1,4a-dimethyl-3-[(1-methyl-1H-pyrrol-2-yl)methylen]naphthalen-2(1H)-one]	–	–	10 to 50
CCCCCCCCCC#Cc1ccc(/C=C2\C[C@@]3(C)C(=C(C)C2=O)CCC[C@@H]3O)cc1 [Compound 90, (3E,4aS,5S)-3-[4-(Undec-1-inyl)benzyliden]-4,4a,5,6,7,8-hexahydro-5-hydroxy-1,4a-dimethylnaphthalen-2(3H)-one]	–	10 to 50	–
CCCCCCC#Cc1ccc(/C=C2\C[C@@]3(C)C(=C(C)C2=O)CCC[C@@H]3O)cc1 [Compound 91, (3E,4aS,5S)-3-[4-(Oct-1-inyl)benzyliden]-4,4a,5,6,7,8-hexahydro-5-hydroxy-1,4a-dimethylnaphthalen-2(3H)-one]	–	–	< 10
C=CC[C@@]12C(=CC(=O)/C(=C/CC)[C@@H]1C)CCC[C@@H]2O [Compound 282, (3E,4R,4aS,5S)-4a-Allyl-4,4a,5,6,7,8-hexahydro-5-hydroxy-4-methyl-3-propylidennaphthalen-2(3H)-one]	–	10 to 50	–
CCCCCCC#Cc1ccccc1/C=C1\CCC2C(C)C(O)CC[C@]2(C)C1NC1CCCCC1 (stereo partly drawn) [Compound 323, (E,4aS)-6-[2-(Oct-1-inyl)benzyliden]-5-(cyclohexylamino)-decahydro-1,4a-dimethylnaphthalen-2-ol]	–	–	10 to 50
C=CC[C@@]12C(=CC(=O)/C(=C/c3ccccc3C#CCCCCCCCCCCCCCC)[C@@H]1C)CCC[C@@H]2O [Compound 326, (3E,4R,4aS,5S)-3-[2-(Hexadec-1-inyl)benzyliden]-4a-allyl-4,4a,5,6,7,8-hexahydro-5-hydroxy-4-methylnaphthalen-2(3H)on]	–	–	10 to 50
CCCCCCCCCCCCCCC#Cc1ccccc1/C=C1\C[C@@]2(C)C(=CC1=O)CCC[C@@H]2O [Compound 332, (3E,4aS,5S)-3-[2-(Hexadec-1-inyl)benzyliden]-4,4a,5,6,7,8-hexahydro-5-hydroxy-4a-methylnaphthalen-2(3H)-one]	–	–	10 to 50
COCC#Cc1ccccc1/C=C1\C[C@@]2(C)C(=CC1=O)CCC[C@@H]2O [Compound 334, (3E,4aS,5S)-3-[2-(3-Methoxyprop-1-inyl)benzyliden]-4,4a,5,6,7,8-hexahydro-5-hydroxy-4a-methylnaphthalen-2(3H)-one]	–	–	10 to 50
CC1=C2CCC[C@H](O)[C@@]2(C)CC(=Cc2ccc(C#Cc3ccncc3)cc2)C1=O [Compound 395, (4aS,5S)-5-Hydroxy-1,4a-dimethyl-3-(4-pyridin-4-ylethynyl-benzylidene)-4,4a,5,6,7,8-hexahydro-3H-naphthalen-2-one]	10 to 50	10 to 50	–
CC1=C2CC(C(C)C)CC(O)C2CCC1=O (stereo not shown) [Compound 417, 5-Hydroxy-7-isopropyl-1-methyl-4,4a,5,6,7,8,-hexahydro-3H-naphthalen-2-one]	–	10 to 50	–
